Publication doi:10.1101/623967v1 (bioRxiv, 2019)

Key:
Format in all cases: physicochemical
[1] = pKFI determination: tryptophan fluorescence pH titration; conditions: lipid:peptide 150:1; for pKFI in the presence of NaCl: 150 mM NaCl, POPC and POPC/POPS (9/1) gave similar pKFI; for effect of 150 mM NaCl on the pKFI: POPC vesicles, compared with no NaCl, result in words
[2] = pKFI determination: tryptophan fluorescence pH titration with PS in the vesicles; conditions: for PS50 (amount of PS needed to reach 50% of change in pKFI): hyperbolic fit (Eq. 2) of pKFI versus molar percent POPS, 0-20%
[3] = Tryptophan fluorescence emission spectra at acidic and basic pH; conditions: POPC, Trp fluorescence, λex 280 nm
[4] = as above; conditions: POPC/POPS (9/1), Trp fluorescence, λex 280 nm
[5] = POPC/POPS vesicles, PS 0-20 mol%, lipid:peptide 200:1, 1 μM peptide

| pKFI in the presence of NaCl [1] | effect of 150 mM NaCl on the pKFI [1] | Fluorescence spectral maxima ([3]; acidic pH (pH 4)) | Fluorescence spectral maxima ([3]; basic pH (pH 8)) | Fluorescence spectral maxima ([4]; acidic pH (pH 4)) | Fluorescence spectral maxima ([4]; basic pH (pH 8)) | increase in the pKFI caused by PS [2, 5] | effect of PS on the pKFI ([2]; POPC/POPS vesicles, seven PS levels between 0-20%, result in words) | Sequence | decrease in the pKFI caused by PS [2, 5] | PS50 (amount of PS needed to reach 50% of change in pKFI) [2] |
| --- | --- | --- | --- | --- | --- | --- | --- | --- | --- | --- |
| ~5.4 | no change | 329.7 ± 1.2 nm | 342.1 ± 2.1 nm | 320.2 ± 1.7 nm | 331.7 ± 1.8 nm | ~0.4 pH units | – | GKAGKAGLLGLEGLLGLPLGLLEGLWLGLELEGN [K2-ATRAM] | – | 1.9 % PS |
| ~5.7 | decreased | 327.3 ± 0.7 nm | 341.1 ± 2.3 nm | 330.8 ± 0.8 nm | 350.9 ± 1.0 nm | – | not significantly affected | GLAGLAGLLGLEGLLGLPLGLLEGLWLGLELEGN [ATRAM, acidity-triggered rational membrane (ATRAM) peptide] | – | – |

| Sequence | pKFI in the presence of NaCl [1] | effect of 150 mM NaCl on the pKFI [1] | Fluorescence spectral maxima ([3]; acidic pH (pH 4)) | Fluorescence spectral maxima ([3]; basic pH (pH 8)) | Fluorescence spectral maxima ([4]; acidic pH (pH 4)) | Fluorescence spectral maxima ([4]; basic pH (pH 8)) | increase in the pKFI caused by PS [2, 5] | effect of PS on the pKFI ([2]; POPC/POPS vesicles, seven PS levels between 0-20%, result in words) | decrease in the pKFI caused by PS [2, 5] | PS50 (amount of PS needed to reach 50% of change in pKFI) [2] |
| --- | --- | --- | --- | --- | --- | --- | --- | --- | --- | --- |
| GYAGLAGLLGLEGLLGLPLGLLEGLWLGLELEGN [Y-ATRAM] | ~5.7 | decrease | 324.5 ± 2.9 nm | 343.9 ± 3.6 nm | 320.5 ± 1.9 nm | 342.7 ± 2.3 nm | – | – | ~0.3 pH units | 0.5 % PS |
